PMC10408569, “Recruitment of hexahydroquinoline as anticancer scaffold targeting inhibition of wild and mutants EGFR (EGFR^WT, EGFR^T790M, and EGFR^L858R)” (Journal of Enzyme Inhibition and Medicinal Chemistry, 2023)

Legend:
NCI-H322M = assay: NCI-60 anticancer screening (SRB); assay type: cell-based; conditions: Homo sapiens, NSC lung cancer, one dose 10 μM, read-out: Growth Inhibition Percentage (GI %)
SNB-75 = assay: NCI-60 anticancer screening (SRB); assay type: cell-based; conditions: Homo sapiens; SNB-75, CNS cancer; one dose 10 μM; read-out: Growth Inhibition Percentage (GI %)
SW-620 = assay: NCI-60 anticancer screening (SRB); assay type: cell-based; conditions: Homo sapiens; SW-620, colon cancer; one dose 10 μM; read-out: Growth Inhibition Percentage (GI %)
HCT-116 = assay: NCI-60 anticancer screening (SRB); assay type: cell-based; conditions: Homo sapiens; HCT-116, colon cancer; one dose 10 μM; read-out: Growth Inhibition Percentage (GI %)
HL-60(TB) = assay: NCI-60 anticancer screening (SRB); assay type: cell-based; conditions: Homo sapiens, leukemia, one dose 10 μM, read-out: Growth Inhibition Percentage (GI %)
MDA-MB-468 = assay: NCI-60 anticancer screening (SRB); assay type: cell-based; conditions: Homo sapiens; MDA-MB-468, breast cancer; one dose 10 μM; read-out: Growth Inhibition Percentage (GI %)
RXF 393 = assay: NCI-60 anticancer screening (SRB); assay type: cell-based; conditions: Homo sapiens; RXF 393, renal cancer; one dose 10 μM; read-out: Growth Inhibition Percentage (GI %)
M14 = assay: NCI-60 anticancer screening (SRB); assay type: cell-based; conditions: Homo sapiens; M14, melanoma; one dose 10 μM; read-out: Growth Inhibition Percentage (GI %)
NCI/ADR-RES = assay: NCI-60 anticancer screening (SRB); assay type: cell-based; conditions: Homo sapiens, ovarian cancer, one dose 10 μM, read-out: Growth Inhibition Percentage (GI %)
MCF7 = assay: NCI-60 anticancer screening (SRB); assay type: cell-based; conditions: Homo sapiens; MCF7, breast cancer; one dose 10 μM; read-out: Growth Inhibition Percentage (GI %)
SK-OV-3 = assay: NCI-60 anticancer screening (SRB); assay type: cell-based; conditions: Homo sapiens; SK-OV-3, ovarian cancer; one dose 10 μM; read-out: Growth Inhibition Percentage (GI %)
BT-549 = assay: NCI-60 anticancer screening (SRB); assay type: cell-based; conditions: Homo sapiens; BT-549, breast cancer; one dose 10 μM; read-out: Growth Inhibition Percentage (GI %)
OVCAR-5 = assay: NCI-60 anticancer screening (SRB); assay type: cell-based; conditions: Homo sapiens; OVCAR-5, ovarian cancer; one dose 10 μM; read-out: Growth Inhibition Percentage (GI %)
K-562 = assay: NCI-60 anticancer screening (SRB); assay type: cell-based; conditions: Homo sapiens, K562; K-562, leukemia; one dose 10 μM; read-out: Growth Inhibition Percentage (GI %)
PC-3 = assay: NCI-60 anticancer screening (SRB); assay type: cell-based; conditions: Homo sapiens; PC-3, prostate cancer; one dose 10 μM; read-out: Growth Inhibition Percentage (GI %)
HCT-15 = assay: NCI-60 anticancer screening (SRB); assay type: cell-based; conditions: Homo sapiens; HCT-15, colon cancer; one dose 10 μM; read-out: Growth Inhibition Percentage (GI %)
786-0 = assay: NCI-60 anticancer screening (SRB); assay type: cell-based; conditions: Homo sapiens; 786-0, renal cancer; one dose 10 μM; read-out: Growth Inhibition Percentage (GI %)
SF-268 = assay: NCI-60 anticancer screening (SRB); assay type: cell-based; conditions: Homo sapiens; SF-268, CNS cancer; one dose 10 μM; read-out: Growth Inhibition Percentage (GI %)
A498 = assay: NCI-60 anticancer screening (SRB); assay type: cell-based; conditions: Homo sapiens; A498, renal cancer; one dose 10 μM; read-out: Growth Inhibition Percentage (GI %)
CCRF-CEM = assay: NCI-60 anticancer screening (SRB); assay type: cell-based; conditions: Homo sapiens, leukemia, one dose 10 μM, read-out: Growth Inhibition Percentage (GI %)
NCI-H226 = assay: NCI-60 anticancer screening (SRB); assay type: cell-based; conditions: Homo sapiens; NCI-H226, NSC lung cancer; one dose 10 μM; read-out: Growth Inhibition Percentage (GI %)
SR = assay: NCI-60 anticancer screening (SRB); assay type: cell-based; conditions: Homo sapiens, leukemia, one dose 10 μM, read-out: Growth Inhibition Percentage (GI %)
T-47D = assay: NCI-60 anticancer screening (SRB); assay type: cell-based; conditions: Homo sapiens, T47D, breast cancer, one dose 10 μM, read-out: Growth Inhibition Percentage (GI %)
UACC-257 = assay: NCI-60 anticancer screening (SRB); assay type: cell-based; conditions: Homo sapiens; UACC-257, melanoma; one dose 10 μM; read-out: Growth Inhibition Percentage (GI %)
U251 = assay: NCI-60 anticancer screening (SRB); assay type: cell-based; conditions: Homo sapiens, U-251; U251, CNS cancer; one dose 10 μM; read-out: Growth Inhibition Percentage (GI %)
SK-MEL-2 = assay: NCI-60 anticancer screening (SRB); assay type: cell-based; conditions: Homo sapiens; SK-MEL-2, melanoma; one dose 10 μM; read-out: Growth Inhibition Percentage (GI %)
MDA-MB-231 = assay: NCI-60 anticancer screening (SRB); assay type: cell-based; conditions: Homo sapiens; MDA-MB-231, breast cancer; one dose 10 μM; read-out: Growth Inhibition Percentage (GI %)
IGROV1 = assay: NCI-60 anticancer screening (SRB); assay type: cell-based; conditions: Homo sapiens, IGROV-1; IGROV1, ovarian cancer; one dose 10 μM; read-out: Growth Inhibition Percentage (GI %)
LOX IMVI = assay: NCI-60 anticancer screening (SRB); assay type: cell-based; conditions: Homo sapiens, melanoma, one dose 10 μM, read-out: Growth Inhibition Percentage (GI %)
NCI 60 cancer cell lines = assay: NCI-60 anticancer screening (SRB), whole panel; assay type: cell-based, human; conditions: mean across the NCI-60 panel; one dose 10 μM
TK-10 = assay: NCI-60 anticancer screening (SRB); assay type: cell-based; conditions: Homo sapiens; TK-10, renal cancer; one dose 10 μM; read-out: Growth Inhibition Percentage (GI %)
COLO 205 = assay: NCI-60 anticancer screening (SRB); assay type: cell-based; conditions: Homo sapiens; COLO 205, colon cancer; one dose 10 μM; read-out: Growth Inhibition Percentage (GI %)
KM 12 = assay: NCI-60 anticancer screening (SRB); assay type: cell-based; conditions: Homo sapiens, KM12; KM 12, colon cancer; one dose 10 μM; read-out: Growth Inhibition Percentage (GI %)

| Compound | inhibition at 10 µM (NCI-H322M) | inhibition at 10 µM (SNB-75) | inhibition at 10 µM (SW-620) | inhibition at 10 µM (HCT-116) | inhibition at 10 µM (HL-60(TB)) | inhibition at 10 µM (MDA-MB-468) | inhibition at 10 µM (RXF 393) | inhibition at 10 µM (M14) | inhibition at 10 µM (NCI/ADR-RES) | inhibition at 10 µM (MCF7) | inhibition at 10 µM (SK-OV-3) | inhibition at 10 µM (BT-549) | inhibition at 10 µM (OVCAR-5) | inhibition at 10 µM (K-562) | inhibition at 10 µM (PC-3) | inhibition at 10 µM (HCT-15) | inhibition at 10 µM (786-0) | inhibition at 10 µM (SF-268) | inhibition at 10 µM (A498) | inhibition at 10 µM (CCRF-CEM) | further results |
| --- | --- | --- | --- | --- | --- | --- | --- | --- | --- | --- | --- | --- | --- | --- | --- | --- | --- | --- | --- | --- | --- |
| CCOC(=O)C1=C(N)N(c2ccc(Cl)cc2)C2=C(C(=O)CC(C)(C)C2)C1c1ccccn1 (racemic) [12c, (±)-Ethyl 2-amino-1–(4-chlorophenyl)-7,7-dimethyl-5-oxo-4-(pyridine-2-yl)-1,4,5,6,7,8-hexahydroquinoline-3-carboxylate] | < 10% | < 10% | < 10% | 13% | < 10% | < 10% | < 10% | < 10% | < 10% | 11% | < 10% | < 10% | < 10% | < 10% | 19% | 12% | < 10% | < 10% | < 10% | < 10% | inhibition at 10 µM (NCI-H226): < 10%; inhibition at 10 µM (SR): < 10%; inhibition at 10 µM (T-47D): < 10%; inhibition at 10 µM (UACC-257): < 10%; inhibition at 10 µM (U251): < 10%; inhibition at 10 µM (SK-MEL-2): < 10%; inhibition at 10 µM (MDA-MB-231): < 10%; inhibition at 10 µM (IGROV1): < 10%; inhibition at 10 µM (LOX IMVI): < 10%; GI % mean (NCI 60 cancer cell lines): - ((-) = GI % mean less than 10); inhibition at 10 µM (TK-10): < 10%; inhibition at 10 µM (COLO 205): < 10%; inhibition at 10 µM (KM 12): < 10% |
| CCOC(=O)C1=C(N)N(c2ccccc2)C2=C(C(=O)CC(C)(C)C2)C1c1cccnc1 (racemic) [12d] | < 10% | 17% | < 10% | < 10% | < 10% | < 10% | < 10% | < 10% | 13% | < 10% | < 10% | < 10% | < 10% | < 10% | < 10% | < 10% | < 10% | < 10% | < 10% | < 10% | inhibition at 10 µM (NCI-H226): < 10%; inhibition at 10 µM (SR): < 10%; inhibition at 10 µM (T-47D): < 10%; inhibition at 10 µM (UACC-257): < 10%; inhibition at 10 µM (U251): < 10%; inhibition at 10 µM (SK-MEL-2): < 10%; inhibition at 10 µM (MDA-MB-231): < 10%; inhibition at 10 µM (IGROV1): < 10%; inhibition at 10 µM (LOX IMVI): < 10%; GI % mean (NCI 60 cancer cell lines): - ((-) = GI % mean less than 10); inhibition at 10 µM (TK-10): < 10%; inhibition at 10 µM (COLO 205): < 10%; inhibition at 10 µM (KM 12): < 10% |
| CCOC(=O)C1=C(N)N(c2ccc(C)cc2)C2=C(C(=O)CC(C)(C)C2)C1c1cccnc1 (racemic) [12e, (±)-Ethyl 2-amino-7,7-dimethyl-1–(4-methylphenyl)-5-oxo-1-phenyl-4-(pyrdin-3-yl)-1,4,5,6,7,8-hexahydroquinoline-3-carboxylate] | < 10% | 14% | < 10% | < 10% | < 10% | < 10% | < 10% | < 10% | < 10% | < 10% | < 10% | < 10% | < 10% | < 10% | 12% | < 10% | < 10% | < 10% | < 10% | < 10% | inhibition at 10 µM (NCI-H226): < 10%; inhibition at 10 µM (SR): < 10%; inhibition at 10 µM (T-47D): < 10%; inhibition at 10 µM (UACC-257): < 10%; inhibition at 10 µM (U251): < 10%; inhibition at 10 µM (SK-MEL-2): < 10%; inhibition at 10 µM (MDA-MB-231): < 10%; inhibition at 10 µM (IGROV1): < 10%; inhibition at 10 µM (LOX IMVI): < 10%; GI % mean (NCI 60 cancer cell lines): - ((-) = GI % mean less than 10); inhibition at 10 µM (TK-10): < 10%; inhibition at 10 µM (COLO 205): < 10%; inhibition at 10 µM (KM 12): < 10% |
